Results on 5 molecules are retold here after PMC6149822, “A New Series of Pyrrole-Based Chalcones: Synthesis and Evaluation of Antimicrobial Activity, Cytotoxicity, and Genotoxicity” (Molecules : A Journal of Synthetic Chemistry and Natural …, 2017).

Values after ≈ are worked out from the molar mass of the structure shown.

What is called MIC is the lowest concentration that inhibits growth of the organism. What is called melting point is the temperature of the solid-liquid transition. What is called IC50 is the concentration needed to halve the response being measured.

Data set [1] deals with C. krusei (ATCC 6258). Put plainly: Microdilution susceptibility assay (MIC). The data set is classed as cell-based, Candida krusei. Particulars: Pichia kudriavzevii, ATCC6258. Here is the method:
(§1) Compounds 1–10 were screened for their antimicrobial activity against gram-negative bacteria, gram-positive bacteria, and yeasts, listed in Table 1. Bacteria were grown in Mueller-Hinton Broth and yeasts were grown in Sabouraud Dextrose Broth (SDB) during experiments. Overnight cultures were prepared routinely by subculturing of stock culture onto Mueller-Hinton Agar for bacteria and Sabouraud Dextrose Agar for yeasts.
(§2) Microdilution susceptibility assay was used for the determination of antibacterial and anticandidal efficacy of compounds 1–10. Chloramphenicol and ketoconazole were used as positive controls for bacteria and yeasts, respectively. All experiments were designed according to the Clinical Laboratory Standards Institute (CLSI). All chemicals were dissolved in dimethyl sulfoxide (DMSO) to obtain stock solution (10 mg/mL). Two-fold serial dilutions (800, 400, 200...0.78 µg/mL) of the compounds were prepared from stock solutions with dH2O. 100 µL of each solution was transferred to 96-well microtiter plates and 100 µL of 10^6 CFU/mL of bacteria and 2 × 10^3 of CFU/mL yeast were added to related wells. As negative controls, wells including microorganisms without agents and wells including agents without microorganisms were used. The plates were kept at 35 °C for 18–20 h and the growth was determined with resazurin (20 mg/mL). Assays were carried out in triplicate.

Data set [2] deals with A549 human lung adenocarcinoma cell line. Put plainly: MTT assay. The format is cell-based. The note with it: for IC50: Homo sapiens, A549. The method, then: (§3) The anticancer effects of compounds 1–10 on A549 human lung adenocarcinoma (ATCC® CCL-185™), HepG2 human hepatocellular carcinoma (ATCC® HB-8065™), and C6 rat glioma (ATCC® CCL107™) cell lines were assessed using 3-(4,5-Dimethylthiazol-2-yl)-2,5-diphenyltetrazolium bromide (MTT) assay, whereas the selectivity of compounds 1–10 was tested using NIH/3T3 mouse embryonic fibroblast cell line (ATCC® CRL-1658™, London, UK). All cell lines were incubated according to the supplier’s recommendations. The cells were seeded as 1 × 10^4 cells into each well of the 96-well plates. MTT assay was performed as previously described. The compounds were tested between the concentrations equal to 1 mM and 0.000316 mM (1.0, 0.316, 0.10, 0.0316, 0.01, 0.00316, 0.001, 0.000316 mM). Stock solutions of compounds were prepared in dimethyl sulfoxide (DMSO) and further dilutions were made with fresh culture medium. The final DMSO concentration was under 1% [34] and cisplatin was used as a positive control. Inhibition % was calculated for each concentration according to the formula below, and IC50 values were determined by plotting a dose–response curve of inhibition % versus compound concentrations tested. All experiments were performed in quadruplicate.Inhibition % = 100 − [(ODtest compound − ODblank/ODsolvent control − ODblank)] × 100(1)

In data set [3] the test system is HepG2 human hepatocellular carcinoma cell line. Put plainly: MTT assay. The format is cell-based. The note with it: for IC50: Homo sapiens, HepG2. Here is the method:
as §3

Data set [4] has as its system C6 rat glioma cell line. The data set is described as follows: MTT assay. The format is cell-based. Particulars: for IC50: Rattus norvegicus, C6. The method, then:
as §3
On the technique in general: Tetrazolium assays rely on reduction of a dye to a coloured formazan, in cell work by metabolically active cells.

Data set [5] relates to NIH/3T3 mouse embryonic fibroblast cell line. The data set is described as follows: MTT assay. The data set is classed as cell-based. Particulars: for IC50: Mus musculus, NIH3T3, healthy cells for selectivity. Here is the method:
as §3

In data set [6] the test system is C. parapsilosis (ATCC 22019). The data set is described as follows: Microdilution susceptibility assay (MIC). The data set is classed as cell-based, Candida parapsilosis. The note with it: Lodderomyces parapsilosis, ATCC22019. Here is the method:
as §1, §2

In data set [7] the test system is C. glabrata (ATCC 90030). Put plainly: Microdilution susceptibility assay (MIC). The format is cell-based, Candida glabrata. The note with it: Nakaseomyces glabratus, ATCC90030. The method, then: as §1, §2
Background: Dilution methods test growth across graded concentrations, often in twofold steps.

Data set [8] concerns C. albicans (ATCC 90028). Put plainly: Microdilution susceptibility assay (MIC). The data set is classed as cell-based. Particulars: Candida albicans, ATCC90028. Here is the method:
as §1, §2

Data set [9] concerns E. faecalis (ATCC 29212). Put plainly: Microdilution susceptibility assay (MIC). The data set is classed as cell-based. Particulars: Enterococcus faecalis, ATCC29212. Here is the method: as §1, §2
In data set [10] the test system is K. pneumoniae (ATCC 700603). Put plainly: Microdilution susceptibility assay (MIC). The note with it: Klebsiella pneumoniae, ATCC700603. The data set is classed as cell-based. The method, then: as §1, §2
Data set [11] relates to E. coli (ATCC 25922). Put plainly: Microdilution susceptibility assay (MIC). The data set is classed as cell-based. Particulars: Escherichia coli, ATCC25922. Here is the method: as §1, §2
Data set [12] relates to E. faecalis (ATCC 51299). The data set is described as follows: Microdilution susceptibility assay (MIC). The format is cell-based. The note with it: Enterococcus faecalis, ATCC51299. Here is the method: as §1, §2
Data set [13] relates to S. aureus (ATCC 25923). Put plainly: Microdilution susceptibility assay (MIC). The format is cell-based. The note with it: Staphylococcus aureus, ATCC25923. Here is the method: as §1, §2
In data set [14] the test system is C. krusei cells. The data set is described as follows: Flow cytometry live/dead analysis (TO/PI). The note with it: 25 µg/mL, 4 h. The format is cell-based, Candida krusei. The source says:
In order to investigate the effects of compounds 7 and 9 on the integrity of C. krusei cells, flow cytometry was used with BD cell viability kits. Live cells are impermeable to dyes such as PI since they have intact membranes. TO is a permeant dye and enters live and dead cells to varying degrees. The fluorescent signal from TO in viable cells allows their enumeration, even when debris in the cell preparation contaminates a scatter gate around the cells. Thus, the combination of these two dyes provides a rapid and reliable method for discriminating live and dead eukaryotic cells, including yeasts. All steps were performed according to manufacturers’ recommendations. Briefly, Candida cells were cultured at 35 °C in SDB until late log phase. The cells were centrifuged and washed with phosphate-buffered saline (PBS) at pH = 7.0. Suspensions containing 2 × 10^3 cells/mL were incubated with compounds 7 and 9, and ketoconazole as a reference drug, for 4 h at 35 °C, with shaking (200 r.p.m.). […] Suspensions of treated and untreated cells were incubated for 30 min in the presence of 2 µL of PI and 2 µL of TO, in the dark, at room temperature. The cell suspensions were analysed in a BD Accuri C6 flow cytometer (Becton-Dickinson, Mansfield, MA, USA). The cell scattergram (forward scatter: FS, side scatter: SS), the autofluorescence (without fluorocrome), and the intensity of fluorescence at FL1 (green fluorescence, 525 nm) and FL2 (red fluorescence, 620 nm) were recorded using a logarithmic scale.
A general note: A flow cytometer gives signals particle by particle.

As to `Cn1cccc1C(=O)C=Cc1ccc(-c2ccccc2Cl)o1` [Compound 5, 1-(1-Methyl-1H-pyrrol-2-yl)-3-(5-(2-chlorophenyl)furan-2-yl)prop-2-en-1-one], the melting point lay within 95 to 96 °C. Moreover, the MIC in [1] is 200 µg/mL (≈ 642 µM). This molecule registered an IC50 in [2] of 311 µg/mL (≈ 998 µM). Further, the concentration for half-maximal inhibition (IC50) in [3] was found to be 31 µg/mL (≈ 99.4 µM). Further, the IC50 in data set [4] is > 311 µg/mL. This molecule also showed an IC50 in [5] of 45 µg/mL (≈ 144 µM). The same molecule returned an MIC in data set [6] of 100 µg/mL (≈ 321 µM). Further, inhibition of growth in data set [7] (MIC) required 200 µg/mL (≈ 642 µM). In data set [8], the MIC came to 200 µg/mL (≈ 642 µM). Further, the lowest concentration to inhibit growth in data set [9] (MIC) was 200 µg/mL (≈ 642 µM). Moreover, it took 200 µg/mL (≈ 642 µM) to inhibit growth in [10] (MIC). The molecule further yielded a minimum inhibitory concentration (MIC) in [11] of 400 µg/mL (≈ 1280 µM). Also, the lowest concentration to inhibit growth in data set [12] (MIC) was 200 µg/mL (≈ 642 µM). In data set [13], this molecule showed an MIC of 400 µg/mL (≈ 1280 µM).

Take `O=C(N[C@H](CO)[C@H](O)c1ccc([N+](=O)[O-])cc1)C(Cl)Cl` [Chloramphenicol, reference compound]: the minimal inhibitory concentration (MIC) turned out to be 50 µg/mL (≈ 155 µM) in [9]; 50 µg/mL (≈ 155 µM) in data set [10]; 25 µg/mL (≈ 77.4 µM) in [11]; 100 µg/mL (≈ 309 µM) in [12]; 25 µg/mL (≈ 77.4 µM) in data set [13].

With `N.N.[Cl][Pt][Cl]` [Cisplatin, reference compound], in data set [2], the “IC50 A549 Cell Line” value stood at 19 µg/mL. The “IC50 HepG2 Cell Line” value in data set [3] was determined as 38 µg/mL. Moreover, the “IC50 C6 Cell Line” value in data set [4] is 46 µg/mL. Also, the “IC50 NIH/3T3 Cell Line” value in data set [5] (healthy cells for selectivity) was >300 µg/mL.

`Cn1cccc1C(=O)C=Cc1ccc(-c2cccc(Cl)c2)o1` [Compound 6, 1-(1-Methyl-1H-pyrrol-2-yl)-3-(5-(3-chlorophenyl)furan-2-yl)prop-2-en-1-one]: the melting point was 121 to 122 °C. The MIC in [1] turned out to be 200 µg/mL (≈ 642 µM). In [2], this molecule returned a 50% inhibitory concentration (IC50) of 98 µg/mL (≈ 314 µM). The same molecule gave an IC50 in [3] of 98 µg/mL (≈ 314 µM). The same molecule returned an IC50 in data set [4] of 103 µg/mL (≈ 330 µM). Also, in data set [5], inhibition was half-maximal at 38 µg/mL (≈ 122 µM) (IC50). For the same molecule, inhibition of growth in [6] (MIC) required 100 µg/mL (≈ 321 µM). Besides, in data set [7], the MIC was 200 µg/mL (≈ 642 µM). Besides, 200 µg/mL (≈ 642 µM) was the least that counted as inhibitory in data set [8] (MIC). For the same molecule, the MIC in data set [9] is 200 µg/mL (≈ 642 µM). In data set [10], this molecule registered an MIC of 200 µg/mL (≈ 642 µM). In data set [11], this molecule had an MIC of 100 µg/mL (≈ 321 µM). Besides, the MIC in data set [12] was 200 µg/mL (≈ 642 µM). Also, in [13], the MIC came out at 200 µg/mL (≈ 642 µM).

Take `CC(=O)N1CCN(c2ccc(OCC3COC(Cn4ccnc4)(c4ccc(Cl)cc4Cl)O3)cc2)CC1` (stereo not shown) [Ketoconazole, reference compound]: the minimum inhibitory concentration (MIC) in [1] is 50 µg/mL (≈ 94.1 µM); in [6], 50 µg/mL (≈ 94.1 µM); in data set [7] it was 100 µg/mL (≈ 188 µM); in data set [8] it was 50 µg/mL (≈ 94.1 µM). For the same molecule, in [14], the “Dead Cell %” value amounted to 18.4%. Besides, the “Live Cell %” value in data set [14] amounted to 81.2%.
